Laboratory results published in patent US6673937B2, “Syntheses and methods of use of new antimitotic agents” (The University of Pittsburgh, priority 2000, dated 2004).

Assays:
[1] = test system: recombinant Cdc25; assay: In vitro inhibition of recombinant Cdc25; format: biochemical; conditions: 30 μM, data not shown
[2] = target: T1, PTPIB (Homo sapiens, UniProt P18031); assay: In vitro inhibition of PTPIB; format: biochemical; conditions: 30 μM, data not shown
T1 sequence (P18031 1-435): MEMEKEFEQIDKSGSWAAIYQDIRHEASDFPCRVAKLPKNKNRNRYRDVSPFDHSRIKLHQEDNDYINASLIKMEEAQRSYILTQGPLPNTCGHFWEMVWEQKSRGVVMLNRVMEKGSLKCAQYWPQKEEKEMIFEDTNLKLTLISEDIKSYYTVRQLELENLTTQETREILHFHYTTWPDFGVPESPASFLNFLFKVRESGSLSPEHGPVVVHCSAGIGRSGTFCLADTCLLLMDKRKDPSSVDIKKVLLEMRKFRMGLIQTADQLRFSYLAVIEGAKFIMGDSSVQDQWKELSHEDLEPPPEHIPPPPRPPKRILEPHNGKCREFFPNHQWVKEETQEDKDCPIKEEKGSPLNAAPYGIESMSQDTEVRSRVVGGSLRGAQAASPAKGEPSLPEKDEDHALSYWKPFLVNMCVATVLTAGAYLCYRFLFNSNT

[3] = test system: bovine brain tubulin; assay: Inhibition of [3H]colchicine binding; conditions: 5 μM compound; Mean ± SEM, N = 9
Method: Using methods described previously (Verdier-Pinard P, Lai J-Y, Yoo H-D, Yu J, Marquez B, Nagle DG, Nambu M, White JD, Falck JR, Gerwick WH, Day BW and Hamel E (1998) Structure-activity analysis of the interaction of curacin A, the potent colchicine site antimitotic agent, with tubulin and effects of analogs on the growth of MCF-7 breast cancer cells. Mol Phannacol 53:62-76.). 5,μM [^3H]colchicine was incubated with either 5% DMSO vehicle or compound (5 or 50 μM) at 37° C. for 15 min with 1 μM tubulin in the presence of 1 M monosodium glutamate, 0.1 M glucose-1-phosphate, 1 mM MgCl2, 1 mM GTP and 0.5 mg/ml bovine serum albumin. The solutions were filtered through two stacks of DEAE-cellulose filters and the radioactivity in the filtrate was determined by liquid scintillation spectrometry. Each series of determinations included positive controls of 5 and 50 μM curacin A. The inventors found no evidence that SR-7 could bind to the colchicine site of tubulin. […] The inventors propose that SR-7 may act at another site such as the previously characterized vinca alkaloid site.

[4] = test system: Bcl-2; assay: Bcl-2 phosphorylation immunoblot in MCF-7 cells; format: cell-based, human; conditions: 3 or 10 μM
Excerpt: Attempts to determine the phosphorylation status of Bcl-2 in tsFT210 cells using two different antibodies were unsuccessful due to the antibodies' inability to detect mouse Bcl-2 or the lack of specificity. Therefore, phosphorylated and non-phosphorylated Bcl-2 was detected in lysates from human MCF-7 cells (American Type Culture Collection, Manassas, Va.) treated with microtubule perturbing agents. Equal amounts of protein were separated by electrophoresis on 15% SDS-PAGE followed by immunoblotting with an antihuman Bcl-2 antibody (sc-509, Santa Cruz Biotechnology). Positive antibody reactions were visualized using peroxidase-conjugated secondary antibodies (Jackson ImmunoResearch, West Grove, Pa.) and an enhanced chemiluminescence detection system (Renaissance, NEN, Boston, Mass.) according to manufacturer's instructions.
All known microtubule disrupting compounds cause hyperphosphorylation of the antiapoptotic protein Bcl-2 (Haldar S, Jena N and Croce CM (1995) Inactivation of bcl-2 by phospliorylation. Proc Natl Acad Sci USA 92:4507-4511 and Basu A and Haldar S (1998) Microtubule-damaging drugs trigger bcl2 phosphorylation-requirement of phosphorylation on both serine-70 and serine-87 residues of bcl2 protein. Intl J Oncol 13:659-664). Therefore, the phosphorylation status of Bcl-2 in cells treated with various compounds including SR-7 was examined and the results are illustrated in FIG. 29. Proteins from lysates of MCF-7 cells treated with 0.5 μM paclitaxel, 1 μM nocodozole, 1,μM vincristine and, 3 or 10 μM SR-7 were separated by electrophoresis on 15% SDS-PAGE followed by immunoblotting with an antibody to Bcl-2. The phosphorylated form of Bcl-2 (P) appeared as the upper bands and the underphosphorylated form (U) was the lower band.

Question: Which results are given for `O=C1C=CC2(Oc3cccc4cccc(c34)O2)c2cccc(OCc3ccco3)c21` [SR-7, 8-(furan-2-ylmethoxy)-1-oxo-1,4-dihydronaphthalene-4-spiro-2′-naphto [1″,8″-de][1′,3′] dioxin]?
Answer: inhibition of recombinant Cdc25 activity [1]: no inhibition; inhibition of PTPIB activity [2]: no inhibition; Percent inhibition of [3H]colchicine binding [3]: 1.5 ± 0.5%; Bcl-2 phosphorylation [4]: failed to generate significant hyperphosphorylated Bcl-2
